Experimental findings from patent US20230241226A1, “COMPOUNDS FOR TARGETED DEGRADATION OF CARRIER PROTEINS AND USES THEREOF” (CeMM - Forschungszentrum für Molekulare Medizin GmbH, priority 2019, published 2023) are described below.

Assay [1] concerns Peripheral blood mononuclear cells (PBMCs). Put plainly: Cell viability assay (CellTiter-Glo), single dose, FIG. 10. It counts as cell-based, human. To be noted: patient samples; 75 nM d9A1-2 vs 7.5 µM EIPA; 72 hours. On the procedure: FIG. 10: Viability assay Relative viability of Peripheral blood mononuclear cells (PBMCs) after single-dose treatment with the d9A1-2 molecule or ethyl-isopropyl amiloride (EIPA). PBMCs were isolated from healthy donors and patients with acute myeloid leukemia, multiple myeloma, B cell lymphoma and Hodgkin’s lymphoma, chronic lymphocytic leukeumia. Viability was assayed using the CellTiter-Glo assay, 72 hours post treatment.
Peripheral blood mononuclear cells (PBMCs) were isolated using Lymphoprep (Stem Cell Technologies) from healthy donors and patients with acute myeloid leukemia, multiple myeloma, B cell lymphoma, Hodgkin’s lymphoma, chronic lymphocytic leukeumia. For comparison of different samples, compounds were transferred on black 384-well plates using an acoustic liquid handler (Echo, Labcyte).
Cells were seeded in these plates at densities of 20,000 cells per well in RPMI media (Gibco), supplemented with 10% fetal calf serum (Gibco). Viability was measured after 72 hours using the CellTiter-Glo assay (Promega) on a plate reader (SpectraMax i3x, Molecular Probes). All measurements were done in technical quadruplicates. Toxicity achieved by treatment with d9A1-2 or ethyl-isopropyl amiloride (EIPA) (Sigma) was normalized to the reference controls. Dose response fitting curves were obtained and plotted using GraphPad Prism V8. Data is presented as mean +/- SD.

The next assay concerns the target T1, Strep/HA SLC9A5 (Homo sapiens, UniProt Q14940).
T1 construct: expressed in transfected cells; host or cells: HAP1 (lentiviral, pRRL Strep-HA; cDNA synthesized by Genescript)
Put plainly: Selectivity across SLC9 family: degradation of exogenous Strep/HA SLC9A5. It counts as cell-based. Particulars: HAP1; 250 or 750 nM; 16 hours. The protocol:
(§1) (E) Selectivity of d9A1-2 was tested across HAP1 cell lines expressing Strep/HASLC9A1, 9A4, 9A5, 9A8, 9A2, 9B2, 9A6, 9A9, and 9A3. Cells were treated with varying concentrations of d9A1-2 for 16 hours, after which degradation of the exogenous SLCs was monitored.
(§2) SLC1A5, SLC2A1, SLC2A3, SLC16A1, SLC38A1, SLC38A2 were obtained as gateway-compatible pENTR/pDONR vectors from the Harvard PlasmID Repository. SLC39A7 was obtained from Dharmacon, GE Healthcare. The following vectors were synthesized by Genescript: SLC4A4, SLC7A3, SLC38A9, SLC25A1, SLC9A1, SLC9A2, SLC9A3, SLC9A4, SLC9A5, SLC9A6, SLC9A7, SLC9A8, and SLC9B2. SLC30A9, SLC33A1, SLC35B2, SLC25A26, and MTCH2 were a gift from the RESOLUTE consortium. cDNAs were transferred into gateway-compatible lentiviral expression vectors: pLX305 dTAG vectors (Addgene #91797/8) or pRRL Strep-HA (described previously43, EF1a promotor driven expression) using LR recombination (ThermoFisher Scientific). […]
(§3) For immunoblotting, whole cell extracts were prepared using RIPA lysis buffer (25 mM Tris/HCl pH 7.6, 150 mM NaCl, 1% NP-40, 1% sodium deoxycholate, 0.1% SDS, EDTA-free protease inhibitor (Roche) and phosphatase inhibitors 2+3 (Sigma- Aldrich)). […] Protein extracts were quantified and normalized using the BCA assay (Thermo Scientific). […]

The target in a further assay is T2, Strep/HA SLC9A6 (Homo sapiens, UniProt Q92581).
T2 construct: expressed in transfected cells; host or cells: HAP1 (lentiviral, pRRL Strep-HA; cDNA synthesized by Genescript)
Briefly: Selectivity across SLC9 family: degradation of exogenous Strep/HA SLC9A6. It counts as cell-based. To be noted: HAP1; 250 or 750 nM; 16 hours. On the procedure:
as §1, §2, §3

A further assay has as its target T3, Strep/HA SLC9A2 (Homo sapiens, UniProt Q9UBY0).
T3 construct: expressed in transfected cells; host or cells: HAP1 (lentiviral, pRRL Strep-HA; cDNA synthesized by Genescript)
Put plainly: Selectivity across SLC9 family: degradation of exogenous Strep/HA SLC9A2. It counts as cell-based. To be noted: HAP1; 250 or 750 nM; 16 hours. The protocol: as §1, §2, §3

The target of a further assay is T4, dTAG-HA SLC1A5 (Homo sapiens, UniProt Q15758+Q96SW2).
T4 construct: expressed in transfected cells; also LOVO, SW620, CAKI, SW480
Put plainly: Targeted degradation of dTAG-tagged SLC1A5 (western blot). Particulars: 0.5 µM. It counts as cell-based. The protocol: (§4) (C)HAP1 cells expressing dTAG-HA SLC1A5, 2A3, 30A9, 35B2, MTCH2, and 33A1 were treated for 24 hours with 0.5 µM of dTAG7 or dTAG13, as indicated. HAP1 cells expressing dTAG-HA SLC2A1 and 16A1 were treated for 24 hrs with 0.5 µM of dTAG7. HAP1 cell lines expressing dTAG-HA SLC39A7, dTAG-HA SLC4A4, and SLC7A3-dTAG-HA were treated for 48 hrs with 0.5 µM of dTAG13.
(§5) SLC1A5, SLC2A1, SLC2A3, SLC16A1, SLC38A1, SLC38A2 were obtained as gateway-compatible pENTR/pDONR vectors from the Harvard PlasmID Repository. SLC39A7 was obtained from Dharmacon, GE Healthcare. The following vectors were synthesized by Genescript: SLC4A4, SLC7A3, SLC38A9, SLC25A1, SLC9A1, SLC9A2, SLC9A3, SLC9A4, SLC9A5, SLC9A6, SLC9A7, SLC9A8, and SLC9B2. […]
as §3
(§6) SLCs were ectopically expressed as fusions to a mutated FKBP domain, also known as the dTAG system. […]

The next assay addresses T5, dTAG-HA SLC35B2 (Homo sapiens, UniProt Q8TB61+Q96SW2).
T5 construct: expressed in transfected cells
Put plainly: Targeted degradation of dTAG-tagged SLC35B2 (western blot). It counts as cell-based. To be noted: HAP1, 0.5 µM, 24, 48 or 72 hours. On the procedure: as §4, §5, §3, §6

A value given as a limit tells only on which side of the number the result lay.

T4 sequence (Q15758 with tags, fused parts or gaps): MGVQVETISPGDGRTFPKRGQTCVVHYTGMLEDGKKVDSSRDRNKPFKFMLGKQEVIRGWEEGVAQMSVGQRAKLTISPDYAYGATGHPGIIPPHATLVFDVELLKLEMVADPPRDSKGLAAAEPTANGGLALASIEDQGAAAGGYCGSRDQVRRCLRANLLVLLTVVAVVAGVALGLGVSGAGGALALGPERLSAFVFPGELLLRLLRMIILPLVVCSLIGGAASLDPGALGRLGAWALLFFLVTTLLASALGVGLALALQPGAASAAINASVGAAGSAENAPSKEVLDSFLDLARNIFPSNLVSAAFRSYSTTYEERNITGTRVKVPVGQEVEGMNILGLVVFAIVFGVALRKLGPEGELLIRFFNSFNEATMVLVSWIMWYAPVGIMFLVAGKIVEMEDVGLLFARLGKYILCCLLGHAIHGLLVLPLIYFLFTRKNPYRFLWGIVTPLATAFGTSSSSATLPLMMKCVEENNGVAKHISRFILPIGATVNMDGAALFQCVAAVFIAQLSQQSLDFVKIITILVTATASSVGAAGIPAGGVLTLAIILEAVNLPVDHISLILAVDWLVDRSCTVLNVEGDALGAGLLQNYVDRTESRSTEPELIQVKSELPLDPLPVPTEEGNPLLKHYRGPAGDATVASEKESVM
T4 sequence (Q96SW2 whole entry): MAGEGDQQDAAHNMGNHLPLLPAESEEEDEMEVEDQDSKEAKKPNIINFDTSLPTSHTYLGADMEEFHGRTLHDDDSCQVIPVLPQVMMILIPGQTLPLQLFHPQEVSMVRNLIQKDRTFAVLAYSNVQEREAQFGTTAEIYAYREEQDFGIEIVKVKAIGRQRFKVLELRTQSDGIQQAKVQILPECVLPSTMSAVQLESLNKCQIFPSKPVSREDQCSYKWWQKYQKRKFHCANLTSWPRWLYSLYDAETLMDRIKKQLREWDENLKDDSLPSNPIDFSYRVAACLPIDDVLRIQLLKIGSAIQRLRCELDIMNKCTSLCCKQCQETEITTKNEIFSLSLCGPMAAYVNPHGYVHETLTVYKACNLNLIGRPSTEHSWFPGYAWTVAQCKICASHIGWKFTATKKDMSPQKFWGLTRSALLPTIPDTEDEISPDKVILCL
T4 sequence (Q16531 whole entry partner): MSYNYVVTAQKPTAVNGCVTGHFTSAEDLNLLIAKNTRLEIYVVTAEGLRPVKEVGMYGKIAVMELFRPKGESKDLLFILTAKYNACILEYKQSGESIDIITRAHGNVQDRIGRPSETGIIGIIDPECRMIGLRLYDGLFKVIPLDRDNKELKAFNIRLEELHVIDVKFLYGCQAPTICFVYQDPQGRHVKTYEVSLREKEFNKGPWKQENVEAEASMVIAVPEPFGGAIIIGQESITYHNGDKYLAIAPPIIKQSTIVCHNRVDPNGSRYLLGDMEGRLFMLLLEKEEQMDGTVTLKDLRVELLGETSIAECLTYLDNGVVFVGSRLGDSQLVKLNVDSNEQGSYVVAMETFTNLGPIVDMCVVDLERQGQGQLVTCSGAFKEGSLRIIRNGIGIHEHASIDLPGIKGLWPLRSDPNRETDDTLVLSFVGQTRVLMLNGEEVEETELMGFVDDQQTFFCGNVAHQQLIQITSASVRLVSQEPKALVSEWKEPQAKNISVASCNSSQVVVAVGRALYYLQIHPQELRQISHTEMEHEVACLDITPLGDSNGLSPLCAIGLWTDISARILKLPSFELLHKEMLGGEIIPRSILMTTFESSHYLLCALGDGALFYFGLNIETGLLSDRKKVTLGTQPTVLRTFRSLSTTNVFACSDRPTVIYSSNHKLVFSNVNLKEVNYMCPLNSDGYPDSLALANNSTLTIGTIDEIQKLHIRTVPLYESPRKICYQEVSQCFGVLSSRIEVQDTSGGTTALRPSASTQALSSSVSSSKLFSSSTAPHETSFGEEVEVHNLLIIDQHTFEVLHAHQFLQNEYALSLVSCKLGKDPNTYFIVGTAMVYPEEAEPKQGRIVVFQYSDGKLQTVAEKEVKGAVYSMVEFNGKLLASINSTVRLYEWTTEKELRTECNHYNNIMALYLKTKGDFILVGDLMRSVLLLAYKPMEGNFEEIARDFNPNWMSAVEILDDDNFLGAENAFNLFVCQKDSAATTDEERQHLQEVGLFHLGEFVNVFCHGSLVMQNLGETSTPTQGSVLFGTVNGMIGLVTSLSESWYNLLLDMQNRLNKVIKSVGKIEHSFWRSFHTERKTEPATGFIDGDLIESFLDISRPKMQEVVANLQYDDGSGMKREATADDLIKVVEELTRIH
T2 sequence (Q92581 1-669 isoform Q92581-1): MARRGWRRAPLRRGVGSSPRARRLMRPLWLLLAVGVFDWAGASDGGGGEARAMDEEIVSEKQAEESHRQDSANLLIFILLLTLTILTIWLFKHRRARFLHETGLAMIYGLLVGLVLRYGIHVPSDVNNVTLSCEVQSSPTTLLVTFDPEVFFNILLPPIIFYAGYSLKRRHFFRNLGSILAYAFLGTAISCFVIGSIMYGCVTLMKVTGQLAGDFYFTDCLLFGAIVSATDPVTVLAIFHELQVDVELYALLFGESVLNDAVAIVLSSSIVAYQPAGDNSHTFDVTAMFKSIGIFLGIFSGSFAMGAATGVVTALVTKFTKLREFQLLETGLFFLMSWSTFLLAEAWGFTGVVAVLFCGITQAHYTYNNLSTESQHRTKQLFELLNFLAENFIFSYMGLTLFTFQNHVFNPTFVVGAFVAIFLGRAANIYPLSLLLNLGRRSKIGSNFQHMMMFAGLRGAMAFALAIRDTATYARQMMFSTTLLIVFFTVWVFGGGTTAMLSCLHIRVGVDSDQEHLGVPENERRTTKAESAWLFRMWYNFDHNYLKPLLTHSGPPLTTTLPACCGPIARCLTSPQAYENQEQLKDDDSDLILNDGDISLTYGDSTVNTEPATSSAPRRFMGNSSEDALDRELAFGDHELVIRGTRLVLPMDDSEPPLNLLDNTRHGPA
T5 sequence (Q8TB61 with tags, fused parts or gaps): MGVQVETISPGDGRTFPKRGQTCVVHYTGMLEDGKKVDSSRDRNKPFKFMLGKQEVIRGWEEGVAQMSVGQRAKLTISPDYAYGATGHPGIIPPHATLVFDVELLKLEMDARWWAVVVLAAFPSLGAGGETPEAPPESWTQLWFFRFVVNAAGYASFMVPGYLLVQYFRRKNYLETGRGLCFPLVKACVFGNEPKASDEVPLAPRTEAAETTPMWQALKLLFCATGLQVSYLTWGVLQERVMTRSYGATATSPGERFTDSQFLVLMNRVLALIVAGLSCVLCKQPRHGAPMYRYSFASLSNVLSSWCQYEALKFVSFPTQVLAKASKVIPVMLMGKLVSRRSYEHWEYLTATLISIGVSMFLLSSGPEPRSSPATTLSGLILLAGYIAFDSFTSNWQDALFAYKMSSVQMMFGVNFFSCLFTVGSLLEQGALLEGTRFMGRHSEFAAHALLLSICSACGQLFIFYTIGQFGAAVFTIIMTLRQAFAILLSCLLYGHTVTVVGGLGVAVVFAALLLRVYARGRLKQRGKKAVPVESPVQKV
T5 sequence (Q96SW2 whole entry): as the sequence (Q96SW2 whole entry) above
T5 sequence (Q16531 whole entry partner): as the sequence (Q16531 whole entry partner) above
T3 sequence (Q9UBY0 whole entry): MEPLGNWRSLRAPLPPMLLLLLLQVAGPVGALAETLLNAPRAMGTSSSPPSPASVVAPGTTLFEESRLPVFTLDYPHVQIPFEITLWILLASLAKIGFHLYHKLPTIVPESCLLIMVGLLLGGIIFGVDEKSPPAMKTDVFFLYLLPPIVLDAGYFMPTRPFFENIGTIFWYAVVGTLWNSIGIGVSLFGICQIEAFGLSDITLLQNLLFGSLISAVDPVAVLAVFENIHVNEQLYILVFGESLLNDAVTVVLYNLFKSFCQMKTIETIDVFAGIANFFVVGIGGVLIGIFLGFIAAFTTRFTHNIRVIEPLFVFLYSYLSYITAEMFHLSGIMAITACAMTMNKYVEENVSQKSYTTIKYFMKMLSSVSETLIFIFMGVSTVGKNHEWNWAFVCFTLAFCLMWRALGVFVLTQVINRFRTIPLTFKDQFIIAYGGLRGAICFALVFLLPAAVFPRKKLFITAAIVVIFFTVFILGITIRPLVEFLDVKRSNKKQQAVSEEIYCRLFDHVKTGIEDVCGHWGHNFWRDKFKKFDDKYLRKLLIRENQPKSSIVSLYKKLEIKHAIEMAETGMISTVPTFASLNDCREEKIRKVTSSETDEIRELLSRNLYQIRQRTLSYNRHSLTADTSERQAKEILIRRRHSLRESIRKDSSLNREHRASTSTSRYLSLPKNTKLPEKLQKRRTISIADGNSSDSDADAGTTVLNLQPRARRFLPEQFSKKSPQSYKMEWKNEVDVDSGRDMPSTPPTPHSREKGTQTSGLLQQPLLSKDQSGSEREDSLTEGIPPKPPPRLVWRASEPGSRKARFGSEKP

In the case of `Cc1cc(-c2ccc(C(=O)NCCOCCOCCOCCOCCNc3cccc4c3C(=O)N(C3CCC(=O)NC3=O)C4=O)cc2N2CCC(c3[nH]cnc3C)CC2)ccc1F` (stereo not shown) [d9A1-2], the “toxicity (relative viability) in patient PBMCs compared with EIPA” value in assay [1] is on record as “considerably more toxic than 7.5 µM EIPA”. For the same compound, the “abundance of exogenous SLC9A5” value at Strep/HA SLC9A5 was “not significantly affected”. Further, the “abundance of exogenous SLC9A6” value on Strep/HA SLC9A6 is on record as “not significantly affected”. Also, the “degradation of exogenous SLC9A2” value on Strep/HA SLC9A2 is listed as “prompted degradation”.
`CC[C@H](C(=O)N1CCCC[C@H]1C(=O)O[C@H](CCc1ccc(OC)c(OC)c1)c1ccccc1OCC(=O)NCCCOCCOCCOCCCNC(=O)COc1cccc2c1C(=O)N(C1CCC(=O)NC1=O)C2=O)c1cc(OC)c(OC)c(OC)c1` (stereo partly shown) [dTAG7]: at dTAG-HA SLC1A5 (HAP1, dTAG-HA SLC1A5), the “initiation of degradation (time course)” value is at most 6 h. Moreover, the “reversibility of degradation of the target SLC” value on dTAG-HA SLC35B2 was “reversible degradation”.
Regarding `CC[C@H](C(=O)N1CCCC[C@H]1C(=O)O[C@H](CCc1ccc(OC)c(OC)c1)c1ccccc1OCC(=O)NCCCCCCOc1cccc2c1C(=O)N(C1CCC(=O)NC1=O)C2=O)c1cc(OC)c(OC)c(OC)c1` (stereo partly shown) [dTAG13], the “degradation of dTAG-HA SLC1A5” value at dTAG-HA SLC1A5 (LOVO, SW620, CAKI and SW480 cell lines, 48 hours) is “degradation was observed”.
